Among the data in ChEMBL document CHEMBL1155598, “Microcyclamide, a cytotoxic cyclic hexapeptide from the cyanobacterium Microcystis aeruginosa” (J Nat Prod, 2000) are IC50 values, retold here.

For the experiment, the system named is P388. In words: Cytotoxicity against mouse P388 cells after 3 days by MTT assay. The format is functional, cell-based. As to conditions: P388, 72 h. A general note: Tetrazolium dyes change colour on reduction, which living cells bring about.

Values after ≈ are worked out from the molar mass of the structure shown.

The IC50 is the concentration needed to halve the response being measured. A higher IC50 goes with a need for much substance. As to `CC[C@H](C)[C@@H]1NC(=O)c2nc(oc2C)[C@H](C)NC(=O)c2csc(n2)[C@H](Cc2cncn2C)NC(=O)c2csc1n2` [MICROCYCLAMIDE], it took 1.2 µg/mL (≈ 2.06 µM) to reach half-maximal inhibition (IC50).
